Measurements from ChEMBL document CHEMBL5096206, “From natural products to HDAC inhibitors: An overview of drug discovery and design strategy” (Bioorg Med Chem, 2021).
pIC50: −log10 of the molar value. Values after ≈ are worked out from the molar mass of the structure shown.

Assays:
[1] = biological target: T1, Histone deacetylase 4 (Homo sapiens, UniProt P56524); test: Inhibition of HDAC4 in human HeLa cells incubated for 1 hr by mass spectrometry method; format: cell-based
[2] = biological target: T2, Protein deacetylase HDAC6 (Homo sapiens, UniProt Q9UBN7); test: Inhibition of recombinant HDAC6 (unknown origin) using AMC-K(Ac)GL as substrate by fluorescence based analysis
[3] = tested on: HT-29; test: Inhibition of colony formation in human HT-29 cells at 0.5 to 5 uM measured after 10 days by methylene blue staining based analysis relative to control; format: functional; details: dose 0.5-5 µM, time 10 day
[4] = biological target: T3, Histone deacetylase 1 (Homo sapiens, UniProt Q13547); test: Inhibition of recombinant HDAC1 (unknown origin) using AMC-K(Ac)GL as substrate by fluorescence based analysis
[5] = Inhibition of HDAC in Sprague-Dawley rat hepatocytes using Fluor de Lys as substrate incubated for 15 mins by fluorometric assay; format: cell-based; details: Hepatocyte, 0.25 h
[6] = tested on: HepG2; test: cells; details: Homo sapiens, HepG2, 72 h
Description: Antiproliferative activity against human HepG2 cells assessed as cell growth inhibition measured after 72 hrs by MTT assay

[7] = tested on: MCF7; test: cells; details: Homo sapiens, MCF7, 72 h
Description: Antiproliferative activity against human MCF7 cells assessed as cell growth inhibition measured after 72 hrs by MTT assay

[8] = tested on: MCF10; test: Antiproliferative activity against human MCF10 cells assessed as cell growth inhibition; format: functional, cell-based
[9] = tested on: HA22T cell line; test: Antiproliferative activity against human HA22T cell line assessed as cell growth inhibition; format: functional, cell-based
[10] = tested on: AGS; test: Antiproliferative activity against human AGS cells assessed as cell growth inhibition; format: functional, cell-based
[11] = tested on: HepG2; test: Antiproliferative activity against human HepG2 cells assessed as cell growth inhibition; format: functional, cell-based
[12] = tested on: Hep 3B2; test: Antiproliferative activity against human Hep3B cells assessed as cell growth inhibition; format: functional, cell-based
[13] = tested on: Huh-7; test: Antiproliferative activity against human Huh-7 cells assessed as cell growth inhibition; format: functional, cell-based
[14] = Cytotoxicity against human CCD-18Co assessed as cell growth inhibition; format: toxicity, cell-based; details: CCD-18Co cells
[15] = tested on: MCF7; test: cells; details: Homo sapiens
[16] = biological target: Tubulin beta; test: Inhibition of beta-tubulin polymerization in human MCF7 cells using TMB as substrate incubated for 2 hrs by spectrophotometry analysis; format: cell-based
[17] = biological target: T3, Histone deacetylase 1; test: Inhibition of HDAC1 in human MCF7 cells using TMB as substrate incubated for 2 hrs by ELISA analysis; format: cell-based
[18] = biological target: T4, Histone deacetylase 2 (Homo sapiens, UniProt Q92769); test: Inhibition of HDAC2 in human MCF7 cells using TMB as substrate incubated for 2 hrs by ELISA analysis; format: cell-based
[19] = tested on: P388; test: Cytotoxicity against mouse P388 cells assessed as cell growth inhibition; format: functional, cell-based
[20] = biological target: Histone deacetylase 8 (Homo sapiens, UniProt Q9BY41); test: Inhibition of human recombinant His-tagged HDAC8 expressed in Escherichia coli incubated for 2 hrs by fluorescence based analysis
[21] = tested on: T47D; test: Antiproliferative activity against human T47D cells assessed as cell growth inhibition; format: functional, cell-based
[22] = biological target: Histone deacetylase 3 (Homo sapiens, UniProt O15379); test: Inhibition of human recombinant His-tagged HDAC3 expressed in baculovirus expression system incubated for 2 hrs by fluorescence based analysis
[23] = tested on: BT-20; test: Antiproliferative activity against human BT-20 cells assessed as cell growth inhibition; format: functional, cell-based
[24] = biological target: T4, Histone deacetylase 2; test: Inhibition of human recombinant full-length His-tagged HDAC2 expressed in baculovirus expression system incubated for 2 hrs by fluorescence based analysis
[25] = tested on: MDA-MB-231; test: Antiproliferative activity against human MDA-MB-231 cells assessed as cell growth inhibition; format: functional, cell-based
[26] = biological target: T3, Histone deacetylase 1; test: Inhibition of human recombinant His-tagged HDAC1 expressed in baculovirus expression system incubated for 2 hrs by fluorescence based analysis
[27] = tested on: T47D; test: Antiproliferative activity against human T47D cells assessed as cell growth inhibition by burton method; format: functional, cell-based
[28] = tested on: MCF7; test: cells; details: Homo sapiens; remark: listed apart in the source
Description: Antiproliferative activity against human MCF7 cells assessed as cell growth inhibition by SRB assay

[29] = tested on: BT-474; test: Antiproliferative activity against human BT-474 cells assessed as cell growth inhibition by SRB assay; format: functional, cell-based
[30] = biological target: T1, Histone deacetylase 4; test: Inhibition of HDAC4 (unknown origin)
[31] = biological target: T3, Histone deacetylase 1; test: Inhibition of HDAC1 (unknown origin)
[32] = biological target: T2, Protein deacetylase HDAC6; test: Inhibition of HDAC6 (unknown origin)
[33] = Half life in mouse; format: ADME, organism-based; details: in vivo
[34] = biological target: Histone deacetylase 5 (Homo sapiens, UniProt Q9UQL6); test: Inhibition of HDAC5 (unknown origin)
Histone deacetylase 5, sequence (Q9UQL6 whole entry): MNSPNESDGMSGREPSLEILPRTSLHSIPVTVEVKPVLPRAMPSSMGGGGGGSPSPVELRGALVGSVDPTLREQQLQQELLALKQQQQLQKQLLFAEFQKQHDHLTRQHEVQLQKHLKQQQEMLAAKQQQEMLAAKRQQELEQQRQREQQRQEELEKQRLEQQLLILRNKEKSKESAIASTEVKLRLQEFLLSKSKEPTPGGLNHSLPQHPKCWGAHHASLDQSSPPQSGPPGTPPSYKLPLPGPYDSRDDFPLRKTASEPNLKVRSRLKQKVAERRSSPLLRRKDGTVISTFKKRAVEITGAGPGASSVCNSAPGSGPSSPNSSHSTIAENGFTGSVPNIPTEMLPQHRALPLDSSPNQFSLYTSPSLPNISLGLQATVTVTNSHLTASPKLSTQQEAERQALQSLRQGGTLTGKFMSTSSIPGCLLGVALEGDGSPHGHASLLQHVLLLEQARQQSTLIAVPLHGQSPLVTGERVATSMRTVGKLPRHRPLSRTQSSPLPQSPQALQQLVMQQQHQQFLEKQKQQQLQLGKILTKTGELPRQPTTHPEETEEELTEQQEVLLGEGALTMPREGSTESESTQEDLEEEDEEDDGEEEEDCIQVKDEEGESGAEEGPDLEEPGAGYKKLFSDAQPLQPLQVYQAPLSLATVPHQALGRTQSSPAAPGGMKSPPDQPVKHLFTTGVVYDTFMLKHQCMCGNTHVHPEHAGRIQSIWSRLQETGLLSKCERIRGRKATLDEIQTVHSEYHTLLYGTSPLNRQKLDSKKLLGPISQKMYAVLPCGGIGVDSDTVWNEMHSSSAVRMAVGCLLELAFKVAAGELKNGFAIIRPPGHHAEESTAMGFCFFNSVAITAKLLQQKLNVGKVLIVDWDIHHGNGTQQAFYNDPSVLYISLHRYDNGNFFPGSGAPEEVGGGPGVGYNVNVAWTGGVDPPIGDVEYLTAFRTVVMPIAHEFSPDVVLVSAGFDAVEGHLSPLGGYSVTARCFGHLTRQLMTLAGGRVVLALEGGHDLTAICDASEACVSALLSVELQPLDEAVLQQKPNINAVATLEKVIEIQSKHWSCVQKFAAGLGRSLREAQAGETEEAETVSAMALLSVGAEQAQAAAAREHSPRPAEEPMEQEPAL

T1 sequence (P56524 whole entry): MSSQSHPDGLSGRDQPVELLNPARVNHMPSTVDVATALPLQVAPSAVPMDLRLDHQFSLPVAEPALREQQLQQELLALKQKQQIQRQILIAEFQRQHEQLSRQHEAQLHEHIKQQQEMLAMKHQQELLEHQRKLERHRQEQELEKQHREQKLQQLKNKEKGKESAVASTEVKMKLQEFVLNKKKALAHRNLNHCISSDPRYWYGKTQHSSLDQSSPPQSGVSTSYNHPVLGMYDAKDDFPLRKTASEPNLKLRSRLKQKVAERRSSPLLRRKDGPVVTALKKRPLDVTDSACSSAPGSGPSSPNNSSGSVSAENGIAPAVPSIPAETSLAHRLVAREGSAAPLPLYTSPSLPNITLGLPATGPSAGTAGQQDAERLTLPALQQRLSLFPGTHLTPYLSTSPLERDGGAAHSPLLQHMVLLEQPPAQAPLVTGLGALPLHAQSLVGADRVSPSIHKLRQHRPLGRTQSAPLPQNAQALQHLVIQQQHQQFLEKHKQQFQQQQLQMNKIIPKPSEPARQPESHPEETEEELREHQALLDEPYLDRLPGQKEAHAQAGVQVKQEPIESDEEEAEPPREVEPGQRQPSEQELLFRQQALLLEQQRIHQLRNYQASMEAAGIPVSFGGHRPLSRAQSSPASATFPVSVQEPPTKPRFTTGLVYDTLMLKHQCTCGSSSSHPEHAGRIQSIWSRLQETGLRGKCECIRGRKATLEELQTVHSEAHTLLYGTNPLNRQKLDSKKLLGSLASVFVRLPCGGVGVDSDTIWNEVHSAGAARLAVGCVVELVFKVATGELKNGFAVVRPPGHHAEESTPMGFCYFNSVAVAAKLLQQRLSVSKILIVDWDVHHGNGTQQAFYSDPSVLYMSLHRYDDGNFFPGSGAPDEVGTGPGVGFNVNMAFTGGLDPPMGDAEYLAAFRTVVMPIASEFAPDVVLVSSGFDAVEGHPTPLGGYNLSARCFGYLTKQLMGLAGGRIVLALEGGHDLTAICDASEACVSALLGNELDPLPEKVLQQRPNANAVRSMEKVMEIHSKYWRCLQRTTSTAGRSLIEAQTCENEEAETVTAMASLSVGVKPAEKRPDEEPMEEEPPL
T3 sequence (Q13547 whole entry): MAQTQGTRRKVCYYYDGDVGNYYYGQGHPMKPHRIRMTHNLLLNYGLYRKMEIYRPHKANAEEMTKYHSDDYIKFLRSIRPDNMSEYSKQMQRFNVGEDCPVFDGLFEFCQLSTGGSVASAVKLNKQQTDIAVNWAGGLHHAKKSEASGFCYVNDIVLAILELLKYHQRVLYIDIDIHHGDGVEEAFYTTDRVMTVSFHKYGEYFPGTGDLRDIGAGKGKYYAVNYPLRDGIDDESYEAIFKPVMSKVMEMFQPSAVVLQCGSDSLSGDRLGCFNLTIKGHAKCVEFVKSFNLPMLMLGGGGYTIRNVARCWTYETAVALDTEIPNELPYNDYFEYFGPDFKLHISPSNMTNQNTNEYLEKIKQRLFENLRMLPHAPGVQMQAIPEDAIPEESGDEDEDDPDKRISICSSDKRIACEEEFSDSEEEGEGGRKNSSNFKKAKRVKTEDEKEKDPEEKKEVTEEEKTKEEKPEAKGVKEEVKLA
T2 sequence (Q9UBN7 whole entry): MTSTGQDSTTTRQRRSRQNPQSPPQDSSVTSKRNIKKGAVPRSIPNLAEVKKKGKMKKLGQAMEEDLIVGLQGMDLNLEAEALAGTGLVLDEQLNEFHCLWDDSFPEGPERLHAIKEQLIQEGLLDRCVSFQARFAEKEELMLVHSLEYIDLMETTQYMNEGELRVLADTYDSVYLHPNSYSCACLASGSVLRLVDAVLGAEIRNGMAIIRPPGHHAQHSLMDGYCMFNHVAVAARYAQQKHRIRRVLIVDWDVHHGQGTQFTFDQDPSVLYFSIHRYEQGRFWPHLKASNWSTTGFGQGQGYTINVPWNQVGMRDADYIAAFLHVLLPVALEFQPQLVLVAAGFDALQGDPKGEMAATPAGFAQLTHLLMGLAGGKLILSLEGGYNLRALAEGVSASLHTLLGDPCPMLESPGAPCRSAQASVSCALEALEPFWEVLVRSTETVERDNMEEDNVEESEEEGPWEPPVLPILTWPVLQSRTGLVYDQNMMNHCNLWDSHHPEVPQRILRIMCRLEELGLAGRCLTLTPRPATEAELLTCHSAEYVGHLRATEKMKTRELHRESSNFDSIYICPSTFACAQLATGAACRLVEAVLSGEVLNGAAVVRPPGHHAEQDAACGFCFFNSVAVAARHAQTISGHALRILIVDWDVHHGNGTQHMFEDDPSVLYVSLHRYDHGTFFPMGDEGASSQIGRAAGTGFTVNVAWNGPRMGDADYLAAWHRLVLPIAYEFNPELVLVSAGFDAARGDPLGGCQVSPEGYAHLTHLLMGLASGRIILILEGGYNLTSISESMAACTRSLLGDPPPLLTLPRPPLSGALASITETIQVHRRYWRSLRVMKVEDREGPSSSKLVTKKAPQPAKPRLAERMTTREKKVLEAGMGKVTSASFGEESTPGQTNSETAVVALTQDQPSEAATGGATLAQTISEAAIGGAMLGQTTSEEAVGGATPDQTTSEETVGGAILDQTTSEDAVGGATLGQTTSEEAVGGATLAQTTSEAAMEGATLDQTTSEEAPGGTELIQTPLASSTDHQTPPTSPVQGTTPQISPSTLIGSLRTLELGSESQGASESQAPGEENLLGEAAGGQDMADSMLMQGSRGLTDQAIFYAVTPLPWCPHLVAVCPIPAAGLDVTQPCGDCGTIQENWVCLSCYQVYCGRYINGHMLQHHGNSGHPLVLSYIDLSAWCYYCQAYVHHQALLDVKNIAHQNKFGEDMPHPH
T4 sequence (Q92769 whole entry): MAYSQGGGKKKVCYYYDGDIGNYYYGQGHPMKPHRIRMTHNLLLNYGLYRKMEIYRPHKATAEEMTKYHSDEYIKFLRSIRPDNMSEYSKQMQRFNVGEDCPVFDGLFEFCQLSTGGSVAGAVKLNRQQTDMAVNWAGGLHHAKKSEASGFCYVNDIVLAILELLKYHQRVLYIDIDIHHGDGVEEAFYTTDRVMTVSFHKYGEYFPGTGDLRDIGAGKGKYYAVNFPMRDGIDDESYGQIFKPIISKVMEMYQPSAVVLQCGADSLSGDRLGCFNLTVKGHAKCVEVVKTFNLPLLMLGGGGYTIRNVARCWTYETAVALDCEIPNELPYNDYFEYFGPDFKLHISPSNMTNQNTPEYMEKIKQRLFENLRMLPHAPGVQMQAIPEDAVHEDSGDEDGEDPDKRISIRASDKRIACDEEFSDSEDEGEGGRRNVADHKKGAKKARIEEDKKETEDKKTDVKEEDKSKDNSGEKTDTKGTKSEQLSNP
Histone deacetylase 3, sequence (O15379 whole entry): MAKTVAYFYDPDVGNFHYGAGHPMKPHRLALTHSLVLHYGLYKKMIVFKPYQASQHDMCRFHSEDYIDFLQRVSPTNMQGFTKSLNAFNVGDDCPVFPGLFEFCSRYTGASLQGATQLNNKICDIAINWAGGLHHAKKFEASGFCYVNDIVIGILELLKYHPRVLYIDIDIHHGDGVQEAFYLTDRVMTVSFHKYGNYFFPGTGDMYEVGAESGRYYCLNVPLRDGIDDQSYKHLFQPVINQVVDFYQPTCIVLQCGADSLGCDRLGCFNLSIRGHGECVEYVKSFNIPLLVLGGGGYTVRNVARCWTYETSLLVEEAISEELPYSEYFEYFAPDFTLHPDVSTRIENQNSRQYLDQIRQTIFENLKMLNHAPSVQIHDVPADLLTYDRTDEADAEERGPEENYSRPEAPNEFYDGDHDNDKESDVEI

**Q.** With `C[C@@H](O)C(=O)CCCCC[C@@H]1NC(=O)[C@H]2CCCN2C(=O)[C@H](Cc2ccccc2)NC(=O)[C@H](Cc2ccccc2)NC1=O` as the compound, how does the pIC50 [1] read?
**A.** 6.55

**Q.** With `CC(C)(C)OC(=O)Nc1cccc(C(=O)/C=C/c2ccc(/C=C/C(=O)NO)cc2)c1` as the compound, how does the pIC50 [2] read?
**A.** 8.00

**Q.** And the “inhibition (INH)” value [3]?
**A.** <=60%

**Q.** And the pIC50 [4]?
**A.** 5.54

**Q.** With `CN(C)c1ccc(C(=O)NCCCCCC(=O)NO)cc1` as the compound, how does the pIC50 [5] read?
**A.** 7.62

**Q.** With `CC[C@]1(C)NC(=O)[C@H](CCCCCC(=O)[C@@H](C)O)NC(=O)[C@H]2CC(C)(C)CN2C(=O)[C@H](Cc2ccccc2)NC1=O` as the compound, how does the pIC50 [1] read?
**A.** 7.05

**Q.** With `CC[C@]1(C)NC(=O)[C@H](CCCCCC(=O)[C@@H](C)O)NC(=O)[C@H]2CCCN2C(=O)[C@H](Cc2ccccc2)NC1=O` as the compound, how does the pIC50 [1] read?
**A.** 7.30

**Q.** With `C[C@H](O)C(=O)CCCCC[C@@H]1NC(=O)[C@H]2CCCN2C(=O)[C@H](Cc2ccccc2)NC(=O)C(C)(C)NC1=O` as the compound, how does the pIC50 [1] read?
**A.** 6.48

**Q.** With `C[C@@H](O)C(=O)CCCCC[C@@H]1NC(=O)[C@H]2CCCN2C(=O)[C@H](Cc2ccccc2)NC(=O)C(C)(C)NC1=O` as the compound, how does the pIC50 [1] read?
**A.** 7.52

**Q.** With `CC[C@@H]1NC(=O)[C@H](CCCCCC(=O)[C@H](C)O)NC(=O)[C@H]2CCCN2C(=O)[C@H](Cc2ccccc2)NC1=O` as the compound, how does the pIC50 [1] read?
**A.** 6.00

**Q.** With `O=C(/C=C/c1ccc([N+](=O)[O-])cc1)c1ccc(NC(=O)c2ccc(CN3C(=O)c4ccccc4C3=O)cc2)cc1` as the compound, how does the pIC50 [6] read?
**A.** 4.80

**Q.** And the pIC50 [7]?
**A.** 5.01

**Q.** With `CCC(=O)CCCCC[C@@H]1NC(=O)[C@H]2CCCCN2C(=O)[C@H]([C@@H](C)CC)NC(=O)[C@H](Cc2cc3ccccc3n2OC)NC1=O` as the compound, how does the pIC50 [8] read?
**A.** 6.72

**Q.** What about the pIC50 [9] of the same compound?
**A.** 6.72

**Q.** What about the pIC50 [10] of the same compound?
**A.** 6.72

**Q.** And the pIC50 [11]?
**A.** 6.72

**Q.** And the pIC50 [12]?
**A.** 6.72

**Q.** What about the pIC50 [13] of the same compound?
**A.** 6.72

**Q.** What about the pIC50 [14] of the same compound?
**A.** 6.72

**Q.** And the pIC50 [15]?
**A.** 6.72

**Q.** With `Cc1c[nH]c([C@@H]2NC(=O)[C@H](CCCCCC(=O)[C@H](C)O)NC(=O)[C@H]3CCCN3C(=O)[C@H](Cc3ccccc3)NC2=O)n1` as the compound, how does the pIC50 [1] read?
**A.** 3.46

**Q.** What does the source list for `COc1ccc(/C=C/C(=O)c2ccc(NC(=O)c3ccc(CN4C(=O)c5ccccc5C4=O)cc3)cc2)cc1`?
**A.** pIC50 [6]: 5.73; pIC50 [7]: 5.62

**Q.** What does the source list for `COc1ccc(/C=C/C(=O)c2ccc(NC(=O)c3ccc(CN4C(=O)c5ccccc5C4=O)cc3)cc2)c(OC)c1`?
**A.** pIC50 [6]: 5.76; pIC50 [7]: 5.68

**Q.** With `O=C(/C=C/c1ccc(Cl)cc1)c1ccc(NC(=O)c2ccc(CN3C(=O)c4ccccc4C3=O)cc2)cc1` as the compound, how does the pIC50 [6] read?
**A.** 5.49

**Q.** And the pIC50 [7]?
**A.** 5.39

**Q.** With `O=C(/C=C/c1ccccc1)c1ccc(NC(=O)c2ccc(CN3C(=O)c4ccccc4C3=O)cc2)cc1` as the compound, how does the pIC50 [6] read?
**A.** 4.89

**Q.** And the pIC50 [7]?
**A.** 4.84

**Q.** Which results are given for `O=C(/C=C/c1cc2ccc1CCc1ccc(cc1)CC2)c1ccc(NC(=O)c2ccc(CN3C(=O)c4ccccc4C3=O)cc2)cc1`?
**A.** pIC50 [6]: 5.07; pIC50 [7]: 5.28

**Q.** With `O=C(/C=C/c1cccc2ccccc12)c1ccc(NC(=O)c2ccc(CN3C(=O)c4ccccc4C3=O)cc2)cc1` as the compound, how does the pIC50 [6] read?
**A.** 5.09

**Q.** What about the pIC50 [7] of the same compound?
**A.** 4.95

**Q.** With `Cc1cc(/C=C/C(=O)c2ccc(NC(=O)c3ccc(CN4C(=O)c5ccccc5C4=O)cc3)cc2)cc(C)c1C` as the compound, how does the pIC50 [6] read?
**A.** 5.79

**Q.** And the IC50 [16]?
**A.** 2.32 µM

**Q.** And the pIC50 [17]?
**A.** 6.66

**Q.** And the pIC50 [18]?
**A.** 6.37

**Q.** And the pIC50 [7]?
**A.** 5.73

**Q.** With `O=C(/C=C/C1Oc2ccccc2O1)c1ccc(NC(=O)c2ccc(CN3C(=O)c4ccccc4C3=O)cc2)cc1` as the compound, how does the pIC50 [6] read?
**A.** 5.71

**Q.** And the pIC50 [7]?
**A.** 5.46

**Q.** With `O=C(/C=C/c1ccccc1-c1ccco1)c1ccc(NC(=O)c2ccc(CN3C(=O)c4ccccc4C3=O)cc2)cc1` as the compound, how does the pIC50 [6] read?
**A.** 5.04

**Q.** And the pIC50 [7]?
**A.** 5.26

**Q.** With `C[C@H](O)C(=O)CCCCC[C@@H]1NC(=O)[C@H]2CCCN2C(=O)[C@H](Cc2ccccc2)NC(=O)C(C2CCCCC2)(C2CCCCC2)NC1=O` as the compound, how does the pIC50 [1] read?
**A.** 6.17

**Q.** With `C[C@@H](O)C(=O)CCCCC[C@@H]1NC(=O)[C@H]2CCCN2C(=O)[C@H](Cc2ccccc2)NC(=O)[C@H](n2ccc3ccccc32)NC1=O` as the compound, how does the pIC50 [1] read?
**A.** 7.70

**Q.** With `O=C(CCCCCNC(=O)c1cc2ccccc2[nH]1)NO` as the compound, how does the pIC50 [5] read?
**A.** 7.85

**Q.** With `COc1ccc(/C=C\c2cc(OC)c(OC)c(OC)c2)cc1O` [COMBRETASTATIN A4] as the compound, how does the pIC50 [7] read?
**A.** 5.31

**Q.** For `O=C(NCCSSCCNC(=O)/C(Cc1ccc(O)c(Br)c1)=N/O)/C(Cc1ccc(O)c(Br)c1)=N/O` [PSAMMAPLIN A], which IC50 [19] is on record?
**A.** 0.3 µg/mL (≈ 0.452 µM)

**Q.** With `CCCC(=O)[O-].[Na+]` [SODIUM BUTYRATE] as the compound, how does the pIC50 [20] read?
**A.** 4.82

**Q.** And the pIC50 [21]?
**A.** 3.15

**Q.** And the pIC50 [22]?
**A.** 5.05

**Q.** And the pIC50 [23]?
**A.** 2.85

**Q.** What about the pIC50 [24] of the same compound?
**A.** 4.92

**Q.** And the pIC50 [25]?
**A.** 3.22

**Q.** And the pIC50 [26]?
**A.** 4.80

**Q.** And the pIC50 [15]?
**A.** 3.30

**Q.** With `CC(/C=C/C(=O)NO)=C\[C@@H](C)C(=O)c1ccc(N(C)C)cc1` [TRICHOSTATIN] as the compound, how does the pIC50 [27] read?
**A.** 7.58

**Q.** What about the pIC50 [28] of the same compound?
**A.** 7.56

**Q.** What about the pIC50 [29] of the same compound?
**A.** 7.48

**Q.** What does the source list for `CCCC(CCC)C(=O)O` [VALPROIC ACID]?
**A.** pIC50 [30]: 3.00; pIC50 [31]: 3.40; pIC50 [32]: 3.00; t1/2 [33]: 7 h; pIC50 [34]: 3.00; pIC50 [15]: 3.64
